This is an account of results in US20060205772A1, “Amide derivatives and their use as inhibitors of 11-beta-hydroxysteroid dehydrogenase type I” (priority 2003, published 2006).

The target in data set [1] is T1, human recombinant 11β-HSD1 (Homo sapiens, UniProt P28845).
T1 construct: made in house; host or cells: Pichia pastoris (microsomal fraction)
Nature of the data set: in vitro inhibition of human recombinant 11β-HSD1 (Pichia pastoris microsomes, [3H]cortisone to [3H]cortisol). In kind it is biochemical. The settings on record: recombinant human 11β-HSD1 microsomes, 500 nM cortisone mixture, NADPH, 90 min at 37° C. How it is done: The in vitro inhibition of human recombinant 11β-HSD1 is determined as follows:
Recombinant human 11β-HSD1 is expressed in yeast Pichia pastoris. Cultures are grown at 30° C. for 3 days in the presence of methanol to induce enzyme expression. The microsomal fraction overexpressing 11β-HSD1 is prepared from the cell homogenate and used as the enzyme source for primary screening. A test compound at the desired concentration is preincubated for 10 min at RT with 3 μg of the microsomal protein in 50 mM sodium phosphate, pH 7.5, in a total volume of 80 μL. The enzyme reaction is initiated by adding 20 μL of a mixture containing 5 mM NADPH, 500 nM cortisone, and 80,000 dpm of [^3H]cortisone in the same buffer and is terminated by ethyl acetate after incubation for 90 min at 37° C. The production of [^3H]cortisol is quantitated upon separation from [^3H]cortisone by a C18 column on HPLC equipped with a radioactivity detector. Glycerrhetinic acid, a known inhibitor of 11β-HSD1, is used as a standard.

Another data set concerns the target T2, human 11β-HSD2 (Homo sapiens, UniProt P80365).
T2 construct: using lysates of SW-620 cells as the enzyme source; host or cells: SW-620 human colon carcinoma cells (lysate)
T2 sequence (P80365 1-405): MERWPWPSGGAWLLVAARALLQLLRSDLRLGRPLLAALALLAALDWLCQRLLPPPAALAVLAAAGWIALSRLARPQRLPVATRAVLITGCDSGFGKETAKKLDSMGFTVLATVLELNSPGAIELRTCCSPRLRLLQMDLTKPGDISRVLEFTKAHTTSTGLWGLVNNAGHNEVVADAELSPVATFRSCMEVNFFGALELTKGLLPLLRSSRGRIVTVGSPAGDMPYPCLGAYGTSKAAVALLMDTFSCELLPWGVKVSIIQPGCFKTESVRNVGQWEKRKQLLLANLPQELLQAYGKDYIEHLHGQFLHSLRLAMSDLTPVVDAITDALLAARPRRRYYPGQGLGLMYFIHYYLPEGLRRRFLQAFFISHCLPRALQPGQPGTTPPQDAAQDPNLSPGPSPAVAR
The experiment in a line: in vitro inhibition of human 11β-HSD2 (SW-620 cell lysates, [3H]cortisol to [3H]cortisone). In kind it is biochemical. The method, then:
The in vitro inhibition of human 11β-HSD2 is determined as follows:
The SW-620 human colon carcinoma cell line is obtained from the American Type Culture Collection (ATCC). Cells are plated at a density of 8-10×10^4 cells/cm^2 in DMEM/F12 containing 5% BCS, 100 U/mL penicillin, 100 μg/mL streptomycin and […] amphotericin B. Cultures are grown to 80-90% confluence in a humidified, atmosphere of 5% CO2 at 37° C. The medium is changed to serum-free, phenol red-free DMEM/F12 at 24 h before harvesting the cells.
After 24 h in serum-free medium, cultured SW-620 cells are rinsed and scraped in Kreb's-Ringer buffer, pH 7.4, containing 1 mM EDTA, 2 μg/mL aprotinin, 10 μM leupeptin and 1 μM pepstatin. After sonication (30 seconds) and low speed centrifugation (2,000 rpm, 5 min) to remove cellular debris, the supernatant is collected and used to determine enzyme activity and protein concentration (BCA, Pierce, Rockford, Ill.).
Dehydrogenase activity is quantified by measuring the conversion of [^3H]cortisol to [^3H]cortisone using lysates of SW-620 cells as the enzyme source. The assay is performed in tubes containing Kreb's-Ringer buffer pH 7.4, with 0.20 mM NAD and 200,000 dpm of [^3H]cortisol and a test compound in a total volume of 1 mL. The tubes are preincubated for 10 min at 37° C. before adding 200 μg of cell lysates to start the reaction. After incubation for 1 h at 37° C. in a shaking water bath, the mixture is extracted with 2 volumes of ethyl acetate and centrifuged for 10 min at 2,000 rpm. The organic layer is collected, dried under vacuum and resuspended in methanol. The dissolved residues are quantitatively transferred to thin layer plates and developed in chloroform-methanol (90:10). Unlabeled cortisol and cortisone were used as reference markers. The TLC plates are scanned on a Bioscan radioimaging detector (Bioscan, Washington, D.C.), and the fractional conversion of cortisol to cortisone is calculated. Enzyme activity is expressed as pmoles of product formed per mg protein per hour. Carbenoxolone and glycyrrhetinic acid are used as standards.

In a further data set the target is T3, cellular 11β-HSD1 (Rattus norvegicus, UniProt P16232).
T3 construct: Enzyme activity is measured in the medium of primary cultures of rat hepatocytes 48 h after plating the cells; endogenous in cells; host or cells: primary hepatocytes of male Sprague-Dawley rats
T3 sequence (P16232 whole entry): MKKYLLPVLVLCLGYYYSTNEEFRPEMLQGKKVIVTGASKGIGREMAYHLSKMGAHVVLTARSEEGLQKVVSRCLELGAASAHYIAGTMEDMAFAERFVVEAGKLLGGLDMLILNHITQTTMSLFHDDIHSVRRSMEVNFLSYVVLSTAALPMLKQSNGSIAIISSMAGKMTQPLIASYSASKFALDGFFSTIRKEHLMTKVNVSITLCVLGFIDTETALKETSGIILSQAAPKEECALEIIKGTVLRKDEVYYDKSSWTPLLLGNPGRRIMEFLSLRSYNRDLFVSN
The experiment in a line: inhibition of cellular 11β-HSD1 activity in primary rat hepatocytes. In kind it is cell-based. The settings on record: 2 h incubation. How it is done:
The inhibition of cellular 11β-HSD1 activity in primary rat hepatocytes is determined as follows:
Male Sprague-Dawley rats weighing 180-200 g are anesthetized with sodium pentobarbital (65 mg/kg). The liver is perfused in situ with calcium-free Earl's Balanced Salt Solution (EBSS) followed by EBSS containing 100-150 U/mL of collagenase, 1.8 mM CaCl2 and 10 mM HEPES, pH 7.4. The perfused liver is removed and aseptically placed in warm William's Medium E containing 10% BCS. After decapsulation, the organ is transferred to fresh medium and gently shaken to facilitate tissue dissociation and cell release. Hepatocytes are separated from nonparenchymal and dead cells by repeated low speed centrifugation. Cell viability is determined by trypan blue exclusion.
Hepatocytes are plated on collagen coated dishes at a density of 1×10^5 cells/cm^2 in William's medium E containing 10% BCS, 100 U/mL penicillin, 100 μg/mL streptomycin, 0.25 μg/mL amphotericin B, 2 mM L-glutamine, 10 mM HEPES, 100 nM insulin and 1 nM dexamethasone. After 1 h the medium is changed to serum-free William's medium E supplemented as described above. Thereafter, the medium is replaced every 24 h. The cultures are maintained in a humidified atmosphere of 5% CO2 at 37° C.
Enzyme activity is measured in the medium of primary cultures of rat hepatocytes 48 h after plating the cells. The medium is aspirated and replaced with serum-free William's medium E containing 2 nM [^3H]11-dehydrocorticosterone and a test compound and is incubated for 2 h. An aliquot of culture medium is removed at the end of the incubation and the mixture is extracted with 2 volumes of ethyl acetate, dried under vacuum and resuspended in methanol. The dissolved residues are quantitatively transferred to thin layer plates and developed in chloroform-methanol (90:10). The TLC plates are scanned on a Bioscan imaging detector and the fractional conversion of 11-dehydrocorticosterone to corticosterone is calculated. The cell layer is rinsed with cold phosphate-buffered saline and dissolved in 0.1 N NaOH/5% SDS for the determination of cellular protein (BCA, Pierce, Rockford, Ill.). Enzyme activity is expressed as pmoles of product formed per mg protein per hour.

Data set [2] concerns corticosterone production in adrenalectomized (ADX) mice. The experiment in a line: inhibition of corticosterone production in adrenalectomized (ADX) mice. In kind it is in vivo. The settings on record: Mus musculus, po; ADX CD1 mice, orally 25 mg/kg each at 2 and 4 h before sacrifice; liver corticosterone. How it is done:
Inhibition of corticosterone production in adrenalectomized (ADX) mice is determined as follows:
Bilateral adrenalectomy is performed in male mice of the CD1 strain (6 to 8 weeks of age, 25-30 g body weight) through a lumbar laparotomy. After 10 days the animals are fasted for 24 h. Compounds are administered orally at 25 mg/kg each at 2 and 4 h before sacrifice. A second group of animals receives carbenoxolone at the same dose, and a third group receives the vehicle (cornstarch). Homogenized liver samples are used to measure corticosterone concentration which is determined by radioimmunoassay and is expressed as pg of corticosterone per mg of liver protein.

T1 sequence (P28845 whole entry): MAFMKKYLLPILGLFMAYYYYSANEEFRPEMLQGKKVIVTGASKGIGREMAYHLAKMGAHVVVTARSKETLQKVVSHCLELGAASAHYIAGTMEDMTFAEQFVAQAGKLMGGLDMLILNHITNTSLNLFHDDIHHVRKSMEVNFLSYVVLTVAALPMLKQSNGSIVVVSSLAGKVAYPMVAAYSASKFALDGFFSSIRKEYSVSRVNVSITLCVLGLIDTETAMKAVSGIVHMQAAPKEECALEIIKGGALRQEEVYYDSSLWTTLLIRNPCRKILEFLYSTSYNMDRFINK

For `Cc1ccc(NC(=O)c2ccc(C(=O)N3CCC[C@H]4CCCC[C@@H]43)cc2)cc1` (racemic) [Example 22, 4-[(4aS*,8aR*)-Octahydro-1(2H)-quinoline-1-carbonyl]-N-p-tolylbenzamide], the melting point lay within 199 to 203 °C.
Still for that read-out and setting: then `O=C(Nc1ccc(C(=O)N2CCC[C@H]3CCCC[C@@H]32)cn1)c1ccc(Cl)cc1Cl` (racemic) [Example 25, 2,4-Dichloro-N-{5-[(4aS*,8aR*)-octahydro-1(2H)-quinoline-1-carbonyl]-pyridin-2-yl}-benzamide], with 202 to 203 °C; and `O=C(Nc1ccc(C(=O)N2CCC[C@H]3CCCC[C@@H]32)cn1)c1ccc(F)cc1` (racemic) [Example 26, 4-Fluoro-N-{5-[(4aS*,8aR*)-octahydro-1(2H)-quinoline-1-carbonyl]-pyridin-2-yl}-benzamide], with 144 to 145 °C; and `COc1ccc(C(=O)Nc2ccc(C(=O)N3CCC[C@H]4CCCC[C@@H]43)c3ccccc23)cc1OC` (racemic) [Example 27, 3,4-Dimethoxy-N-{4-[(4aS*,8aR*)-octahydro-1(2H)-quinoline-1-carbonyl]-naphthalen-1-yl}-benzamide], with 251 to 260 °C.
Take `O=C(Nc1cccc(-c2ccc(C(=O)N3CCC[C@H]4CCCC[C@@H]43)o2)c1)c1ccccc1` (racemic) [Example 34, N-{3-[5-((4aS*,8aR*)-Octahydro-1(2H)-quinoline-1-carbonyl)-furan-2-yl]-phenyl}-benzamide]: the melting point was 62 to 64 °C.
Same read-out and setting: then `CC1=C(C(=O)N2CCC[C@@H]3CCCC[C@H]32)Cc2ccccc21` (racemic) [Example 36, (3-Methyl-H-inden-2-yl)-(4aS*,8aR*)-octahydro-1(2H)-quinolin-1-yl-methanone], with 98 to 100 °C.
The same measure, in the same setting: then `CC1(C)CC[C@H]2[C@@H](CCCN2C(=O)c2ccc(NC(=O)c3ccc(Cl)cc3Cl)cc2)C1` (racemic) [Example 44, 2,4-Dichloro-N-[4-((4aS*,8aS*)-6,6-dimethyl-octahydro-1(2H)-quinoline-1-carbonyl)-phenyl]-benzamide], with 220 to 221 °C.
With `Cn1c(C(=O)N2CCC[C@@H]3CCCC[C@H]32)cc2ccccc21` (relative stereo) [Example 38, (1-Methyl-1H-indol-2-yl)-(4aS*,8aR*)-octahydro-1(2H)-quinolin-1-yl-methanone], in data set [1], the concentration for half-maximal inhibition (IC50) stood at 180 nM. The same molecule yielded an inhibition at 10 µM on human 11β-HSD2 of 10%. At cellular 11β-HSD1, this molecule registered an inhibition at 1 µM of 49%. The change in vivo at 25 mg/kg in data set [2] was -62%.
On to `O=C(Nc1ccc(C(=O)N2CCC[C@H]3CC(O)CC[C@@H]32)cc1)c1ccc(Cl)cc1Cl` (relative stereo) [Example 41, 2,4-Dichloro-N-[4-((4aS*,6S*,8aS*)-6-hydroxy-octahydro-1(2H)-quinoline-1-carbonyl)-phenyl]-benzamide], for which the melting point lay within 183 to 184 °C.
Still for that read-out and setting: then `CN(CC1CCCCC1)C(=O)c1ccc(NC(=O)c2ccc(F)cc2)cc1` [Example 1, N-Cyclohexylmethyl-4-fluorobenzoylamino-N-methylbenzamide], with 158 to 160 °C.
For `CN(CC1CCCCC1)C(=O)c1ccc(NC(=O)c2ccc(F)cc2)cc1Cl` [Example 3-11], the IC50 in data set [1] came to 1000 nM. The same molecule registered an inhibition at 10 µM against human 11β-HSD2 of 26%. This molecule also came in with an inhibition at 1 µM at cellular 11β-HSD1 of 80%. Moreover, the change in vivo at 25 mg/kg in data set [2] was -69%.
For `CC1=C(C(=O)N(C)CC23CC4CC(CC(C4)C2)C3)Cc2ccccc21` [Example 8-6] the same measures were 6.5 nM, 11%, 54% and -57%.
In the case of `C[C@H]1CCCC[C@@H]1N(C)C(=O)c1ccc(NC(=O)c2ccc(Cl)cc2Cl)cc1` [Example 8-8], the melting point lay within 80 to 90 °C.
For the molecule `CN(C(=O)c1ccc(NC(=O)c2ccc(Cl)cc2Cl)cc1)C1CC2CCC1C2` (centres unmarked) [Example 8-9], the melting point was in the range of 85 to 100 °C.
Consider `O=C(Nc1ccc(C(=O)N2CCC[C@@H]3CCCC[C@@H]32)cc1)c1ccc(F)cc1` [Example 11-13], for which the IC50 in data set [1] came out at 563 nM. In addition, on human 11β-HSD2, at 10 µM the inhibition was 2%. On cellular 11β-HSD1, the inhibition at 1 µM worked out at 90%. Besides, the change in vivo at 25 mg/kg in data set [2] was -73%.
As for `COc1cccc(NC(=O)Nc2ccc(C(=O)N3CCC[C@H]4CCCC[C@H]43)c(OC)c2)c1` [Example 13-4], in data set [1], the IC50 worked out at 42 nM. The molecule also returned an inhibition at 10 µM on human 11β-HSD2 of 44%. This molecule also registered an inhibition at 1 µM against cellular 11β-HSD1 of 53%. In data set [2], the change in vivo at 25 mg/kg was -70%.
As to `COc1ccccc1CNC(=O)c1ccc(C(=O)N2CCC[C@@H]3CCCC[C@@H]32)cc1` [Example 23-47], in data set [1], the IC50 stood at 2120 nM. This molecule had an inhibition at 10 µM at human 11β-HSD2 of 49%. This molecule also yielded an inhibition at 1 µM at cellular 11β-HSD1 of 71%. Further, the change in vivo at 25 mg/kg in data set [2] is -61%.
